How the values were obtained:
[1] = system: head and neck cancer patients; assay: DAHANCA 5 trial: Nimorazole or placebo in conjunction with conventional radiotherapy, loco-regional tumour control; type: in vivo, human
Excerpt: In order to test the predictive potential for hypoxic modification of radiotherapy obtained by nitroimidazoles, the 15-gene classifier was applied on all 323 HNSCC biopsies from patients enrolled in the DAHANCA 5 trial. […] Overall, the hypoxia classifier categorized 114 tumours (35%) as “more” hypoxic and 209 tumours (65%) as “less” hypoxic. […] No significant difference in loco-regional tumour control could be detected between the two groups if treatment intervention was ignored (p=0.07), (FIG. 3b). […] This hypothesis could not be supported by the 15-gene hypoxia classifier that identified similar relative distribution of “more” hypoxic tumours among the HPV/p16-positive tumours as among the HPV/p16-negative tumours (Table 5). Thus, it appears that the cause for different prognosis must be searched elsewhere and might be related to a reduced number of radio-resistant cancer stem cells in the HPV/p16-positive tumors.
Hypoxia responsive and pH independent genes were identified by microarray analysis (Affymetrix Human Genome U133 Plus 2.0 Array) of relevant cell lines of squamous cell carcinoma, which were cultured in vitro where microenvironment conditions had been manipulated (0.1% vs. 5% pO2 and 7.4 vs. 6.3 pH). In vivo validation was performed by converting the cell lines into a xenograft model and comparing the gene expression in hypoxic and non-hypoxic tumour areas (Wilcoxon signed rank analysis) guided by a well established hypoxic tracer and [^18F] FAZA. A hypoxia gene expression classifier was build by separating 58 previously hypoxia evaluated formalin fixated paraffin embedded (FFPE) head and neck tumour biopsies into “more” and “less” hypoxic tumours. […] Independent tumours were then to be classified to the group (“more” or “less” hypoxic), in which their gene expression expressed the greatest similarities. The classifier was tested in an independent set of 323 FFPE biopsies of head and neck cancer, were patients had been randomized and treated with either placebo or the hypoxic modifier Nimorazole in conjunction with conventional radiotherapy^4. We verified whether the 15-gene hypoxia classifier could identify a subset of tumours having benefit from Nimorazole in conjunction with radiotherapy, by comparing the clinical outcome and the response to hypoxic modification in the two classified groups with log-rank test, cox-regression analysis and test for interaction.
In vitro experiments were based on human squamous cell carcinoma cell lines UTSCC5, UTSCC14, UTSCC15 (oral carcinoma), FADUDD (hypopharyngeal carcinoma) and SiHa (uterine cervix carcinoma). Xenograft tumours for in vivo validation were generated with cell lines of UTSCC33, FADUDD or SiHa. The hypoxia classifier was generated from 58 previously hypoxia evaluated head and neck cancer biopsies archived as formalin fixated and paraffin embedded samples (FFPE). To test the prognostic and predictive impact of the developed classifier, we used 323 archival supraglottic larynx or pharynx tumour samples (FFPE) from the randomized, double blinded DAHANCA 5 trial.
H, N and M areas of the xenograft tumours were compared with the Wilcoxon's signed rank analysis. End point used in the evaluation of the classifier in the independent data set, was actuarial loco-regional tumour control probability at 5 years, defined as complete and persistent disappearance of the disease in the primary tumour (T site) and regional lymph nodes (N site) after radiotherapy. Failure was recorded in the event of recurrent tumour or if the tumour never completely disappeared. Follow-up was completed as part of the original study. […] Patient and tumour characteristics of the “more” and “less” hypoxic” groups divided by the hypoxia classifier were compared using the Chi Squared test for categorical variables. Loco-regional tumour control in the two groups was illustrated with a Kaplan Meier plot and compared using the log-rank test. […]

[2] = system: head and neck cancer patients; conditions: cited from earlier work

**Q.** For `O=[N+]([O-])c1cncn1CCN1CCOCC1` [Nimorazole, 4-[2-(5-nitro-1H-imidazol-1-yl)ethyl]morpholine], which “HR (95% CI) loco-regional tumour control, Nimorazole vs placebo” value (“HR (95% CI) loco-regional tumour control” below) ([1]; Cox multivariate analysis, "Less" hypoxic group by 15-gene hypoxia classifier) is on record?
**A.** 0.97 (0.65-1.44)

**Q.** What about the “HR (95% CI) loco-regional tumour control” value ([1]; Cox multivariate analysis, "More" hypoxic group by 15-gene hypoxia classifier) of the same compound?
**A.** 0.44 (0.27-0.73)

**Q.** And the “HR (95% CI) loco-regional tumour control” value ([1]; Cox multivariate analysis, all patients (n = 323))?
**A.** 0.70 (0.51-0.96)

**Q.** What about the “HR (95% CI) loco-regional tumour control” value ([1]; Univariate analysis, "Less" hypoxic group by 15-gene hypoxia classifier (n = 209)) of the same compound?
**A.** 0.85 (0.50-1.38)

**Q.** What about the “HR (95% CI) loco-regional tumour control” value ([1]; Univariate analysis, "More" hypoxic group by 15-gene hypoxia classifier (n = 114)) of the same compound?
**A.** 0.46 (0.29-0.75)

**Q.** What about the “HR (95% CI) loco-regional tumour control” value ([1]; Univariate analysis, all patients (n = 323), with conventional radiotherapy) of the same compound?
**A.** 0.72 (0.53-0.97)

**Q.** What about the “outcome in terms of loco-regional tumour control after radiotherapy vs placebo” value ([1]; all 323 HNSCC patients, irrespective of hypoxia classification, p=0.03) of the same compound?
**A.** significantly improved outcome

**Q.** What about the “loco-regional tumour control after 5 years” value ([1]; group classified as "less" hypoxic, Nimorazole with radiotherapy (vs. 44%, p=0.42)) of the same compound?
**A.** 50%

**Q.** What about the “loco-regional tumour control after 5 years” value ([1]; group classified as "more" hypoxic, Nimorazole with radiotherapy (placebo 18%, p=0.002)) of the same compound?
**A.** 49%

**Q.** What about the “outcome compared to placebo in conjunction with radiotherapy” value ([2]; DAHANCA 5 trial as described in the background, head and neck cancer patients) of the same compound?
**A.** improved outcome

**Q.** What about the “effect on loco-regional tumour control of HPV/p16-positive tumors” value ([2]; HPV/p16-positive tumours, previously shown in the DAHANCA 5 study) of the same compound?
**A.** without any beneficial effect

Source: patent US10385399B2, “Method for determining clinically relevant hypoxia in cancer” (AARHUS UNIVERSITET, priority 2011, dated 2019)
